Test [1] has as its system LDLr−/− mice. The experiment in a line: TNF-α concentration in adipose tissue of mice fed different omega-3 products. To be noted: mouse, in vivo. An excerpt:
(§1) 48 male LDLr−/− mice (8-10 weeks of age, ˜20 g) were obtained from Jackson Laboratories (stock #2207) and allowed to acclimate to the cages, room, and feeding design for 12 days. After the acclimation period mice were weighed and randomly assigned to one of six treatments. Mice were fed an isolipid (20% total fatty acids w/w), isonitrogenous, and 0.2% cholesterol (w/w) diet, which is considered atherogenic (Ain76, 58TQ TestDiet®) as a base diet. This base diet was formulated to meet or exceed all nutrient and energy requirements for a growing mouse. The treatments were added to the base diet (0.76% w/w of the total diet) and was made once at the beginning of the study, separated into weekly aliquots, stored at −80° C., allowed to thaw at 4° C. for 2 days prior to feeding, and stored at 4° C. until fed. A sample from each weekly aliquot was collected, composited, and archived for fatty acid analysis at a later date. The treatments were as follows: (1) Negative control diet, 3.5% of the total fatty acids were replaced with milk fat (the only source of fat in the base diet), (2) 3.5% of the total fatty acids were replaced with purified ethyl esters of DHA, (3) 3.5% of the total fatty acids were replaced with purified ethyl esters of DPAn3, (4) 3.5% of the total fatty acids were replaced with purified ethyl esters of EPA, (5) 3.5% of the total fatty acids were replaced with omega-3 fatty acids from Lovaza® (GlaxoSmithKline), and (6) 3.5% of the total fatty acids were replaced with omega-3 fatty acids from ΩmegaActiv® DPA 5000 (Omega Protein Inc., Houston, Tex.; Table 1).
TNF-α concentration in adipose tissue of mice fed with different omega-3 products

Test [2] has as its system LDLr−/− mice. The experiment in a line: Fluorescence intensity of inflammatory markers in brain microvessel (cerebrovasculature) of mice. The class given is in vivo, mouse. The note with it: relative to control = 1.00.
Excerpt: as §1
(§2) The objectives of these studies were to compare the effects of replacing 3.5% of the total fatty acids with DPAn3, EPA, DHA, and commercial combinations of EPA, DPAn3, and DHA on serum lipid profiles, brain inflammation, and the development of atherosclerosis in LDLr−/− mice fed an atherogenic diet for 20 weeks and [2] to determine if DPAn3 enrichment of macrophages (50 and 100 μM) changed their lipopolysaccharide stimulated inflammatory profile relative to saturated (S), mono-unsaturated (MU), and other omega-6 and omega-3 poly-unsaturated (PU) fatty acids (FA).
Flourescence intensity (relative) of brain microvessel

In test [3] the test system is LDLr−/− mice. The experiment in a line: Fluorescence intensity of inflammatory markers in brain hippocampus of mice. In kind it is in vivo, mouse. To be noted: relative to control = 1.
Excerpt: as §1, §2

Test [4] relates to THP-1 cells. The experiment in a line: Cytokine (TNF-α, MCP-1, IL-6) release by LPS-stimulated THP-1 macrophages after fatty acid incubation. To be noted: for Release of cytokines (TNF-α, MCP-1, IL-6) by THP-1 macrophages compared to control macrophages: fatty acid 50 and 100 μM 24 h, then LPS 24 h; for Release of cytokines by THP-1 macrophages at increasing fatty acid concentration: highest 100 μM. In kind it is cell-based. How it is done:
(§3) THP-1 cells were maintained in RPMI 1640+2 mM L-Glutamine, 10 mM HEPES, 1 mM sodium pyruvate, 4500 mg/L glucose, and 1500 mg/L sodium bicarbonate; supplemented with 3.5 μL/L of 2-mercaptoethanol and 10% fetal bovine serum (FBS). Cell line was maintained in 75 cm^2 filtered cap flasks in a 37° C. incubator with 5% CO2. THP-1 cells were seeded in 24 well plates at 5×10^5 cells/mL using 600 μL/well and allowed to differentiate into macrophages (MΦ) for 72 h with phorbol 12-myristate 13-acetate (PMA) at a final concentration of 50 ng/mL.
Experiment 1: Prior to incubation with individual fatty acids, the cells were starved for 8 h in a 2% lipo-free FBS RPMI medium. Individual fatty acids were added in duplicate into the 24 well plate at two concentrations, 50 μM and 100 μM. Every assay was cultured in three runs with duplicates in each run pooled. After incubation for 24 h with fatty acids the MΦ were scraped off the plates and fatty acids were isolated as described in the ‘Animal Tests’ portion of this Example. The fatty acid profiles of the MΦ were determined as previously described (Wang, et al., 2010, Clin. Nutr., DOI: 10.1016/j.clnu.2013.04.009).
(§4) Experiment 2: Previously differentiated MΦ were incubated with fatty acids as described in ‘Experiment 1’ for 24 hours. At the 24 h time point the cells were then stimulated with lipopolysaccharide from E. coli 0111:B4 for another 24 hours. The plates were centrifuged at 1200×g for 5 minutes and supernatant was then collected and analyzed for cytokines. The MΦ were scraped off the plates and fatty acids were isolated as described in the ‘Animal Portion’. The fatty acid profiles of the MΦ were determined as previously described (Wang, et al., 2010, Clin. Nutr., DOI: 10.1016/j.clnu.2013.04.009).
A linear mixed effects model was used in R, lme in the nlme package, for estimating treatment effects on cytokine production in LPS stimulated THP-1 cells. The fixed effects fit were treatment, FA concentration, and when significant LPS concentration was fit as a covariate, the plate cells were cultured on nested within run was fit as a random effect. Least squares means were analyzed as outlined above and pairwise comparisons were made between treatments for FA concentration, or where significant LPS concentration.
The objective of this study was to determine if docosapentaenoic acid n-3 (DPAn3) enrichment of macrophages (MΦ) changed their inflammatory response relative to saturated (S), mono-unsaturated (MU), and other poly-unsaturated (PU) fatty acids (FA). Differentiated THP-1 cells were incubated with one of 11 FA (50 and 100 μM) of varying degrees of unsaturation or no FA for 24 h prior to 24 h of stimulation with lipopolysaccharide from E. coli. Fatty acids were collected from MΦ without stimulation to determine the fatty acid profiles. Media was collected from MΦ post-stimulation and probed for prostaglandin E2, and cytokines, including tumor necrosis factor-α, monocyte chemoattractant protein-1, and interleukin-6. Prostaglandin E2 production was greater (P<0.05) for AA than all other FA, and omega-3 PUFA decreased (P<0.01) PGE2 compared to n6 PUFA and all other FA.

Test [5] has as its system THP-1 cells. Put plainly: Prostaglandin E2 production by LPS-stimulated THP-1 macrophages after fatty acid incubation. The note with it: fatty acid 50 and 100 μM 24 h, then LPS 24 h. In kind it is cell-based. How it is done: as §3, §4
The objective of this study was to determine if docosapentaenoic acid n-3 (DPAn3) enrichment of macrophages (MΦ) changed their inflammatory response relative to saturated (S), mono-unsaturated (MU), and other poly-unsaturated (PU) fatty acids (FA). […]

Test [6] has as its system murine peritoneal macrophages. To be noted: cited from earlier work.

This is an account of results in patent publication US20150159115A1, “PURIFICATION OF DPA ENRICHED OIL” (Omega Protein Corporation, priority 2013, published 2015).

Entries after “also recorded” stand apart in the source; their conditions may differ. Read-outs that look alike come from different tables or passages of the source.

On to `CC/C=C\C/C=C\C/C=C\C/C=C\C/C=C\C/C=C\CCC(=O)O` [DHA, docosahexaenoic acid], for which the “TNF-α Concentration in adipose tissue” value with LDLr−/− mice [1] was 0.82 pg/μg protein. In addition, in the test on LDLr−/− mice [2], the “IL-8 fluorescence intensity (relative) of brain microvessel” value worked out at 0.86 and the “MCP-1 fluorescence intensity (relative) of brain microvessel” value amounted to 0.93. Also, in the test with LDLr−/− mice [3], the “IL-8 fluorescence intensity (relative) of brain hippocampus” value is given as 0.46, the “TIMP2 fluorescence intensity (relative) of brain hippocampus” value came to 0.23 and the “TNF-α fluorescence intensity (relative) of brain hippocampus” value was 0.29.

On to `CCCCCCCCCCCCCCCCCC(=O)O` [C18:0], for which, in the test with THP-1 cells [4], the “Release of cytokines (TNF-α, MCP-1, IL-6) by THP-1 macrophages compared to control macrophages” value (“Release … compared to control macrophages” for short) is on record as “did not change the amount of cytokines released” and the “Release of cytokines by THP-1 macrophages at increasing fatty acid concentration” value (from here on “Release … at increasing fatty acid concentration”) is on record as “did not change, or increased the amount of cytokines released”.

Regarding `CC/C=C\C/C=C\C/C=C\C/C=C\C/C=C\CCCC(=O)O` [EPA, eicosapentaenoic acid], the “TNF-α Concentration in adipose tissue” value in the test on LDLr−/− mice [1] came out at 0.58 pg/μg protein. Moreover, in the test on LDLr−/− mice [2], the “IL-8 fluorescence intensity (relative) of brain microvessel” value is listed as 0.93 and the “MCP-1 fluorescence intensity (relative) of brain microvessel” value is given as 0.96. Besides, in the test with LDLr−/− mice [3], the “IL-8 fluorescence intensity (relative) of brain hippocampus” value was 0.72, the “TIMP2 fluorescence intensity (relative) of brain hippocampus” value stood at 0.63 and the “TNF-α fluorescence intensity (relative) of brain hippocampus” value was determined as 0.31.

As for `CCCCCCCCCCCCCCCC(=O)O` [C16:0], in the test on THP-1 cells [4], the “Release … compared to control macrophages” value is recorded as “did not change the amount of cytokines released” and the “Release … at increasing fatty acid concentration” value was “did not change, or increased the amount of cytokines released”.

On to `CCCCC/C=C\C/C=C\C/C=C\C/C=C\CCCC(=O)O` [AA, Arachidonic acid], for which the “Release … compared to control macrophages” value was “most potent inhibitor of cytokine release followed by AA” with THP-1 cells [4] and “decreased cytokine expression, but not to the extent of EPA supplementation” in the test with THP-1 cells [4] (listed as Arachidonic acid). The “Prostaglandin E2 production by THP-1 macrophages” value in the test with THP-1 cells [5] is listed as “greater; also recorded: increased greatly”. Also, the TNF-α production entry in test [6] (AA at 2-5 μM, increasing LPS concentrations) is recorded as “completely inhibited”; in test [6] (AA at concentrations as low as 1 μM), “decreased TNF-α production”.

Consider `CCCCCCCC/C=C\CCCCCCCC(=O)O` [oleic acid], for which, in the test with THP-1 cells [4], the “Release … compared to control macrophages” value is reported as “did not change the amount of cytokines released; also recorded: did not change inflammatory cytokine release” and the “Release … at increasing fatty acid concentration” value was “did not change, or increased the amount of cytokines released”.

Take `CC/C=C\C/C=C\C/C=C\C/C=C\C/C=C\CCCCCC(=O)O` [DPA, docosapentaenoic acid]: in the test on LDLr−/− mice [1], the “TNF-α Concentration in adipose tissue” value is 0.41 pg/μg protein. Moreover, in the test on LDLr−/− mice [2], the “IL-8 fluorescence intensity (relative) of brain microvessel” value amounted to 0.96 and the “MCP-1 fluorescence intensity (relative) of brain microvessel” value came out at 0.92. For the same compound, in the test with LDLr−/− mice [3], the “IL-8 fluorescence intensity (relative) of brain hippocampus” value was determined as 0.70, the “TIMP2 fluorescence intensity (relative) of brain hippocampus” value stood at 0.17 and the “TNF-α fluorescence intensity (relative) of brain hippocampus” value came out at 0.28.
